Reference: paper PMC6540285, “Evaluation of Protein Kinase Inhibitors with PLK4 Cross-Over Potential in a Pre-Clinical Model of Cancer” (International Journal of Molecular Sciences, 2019)

Key:
[1] = molecular target: JAK3 (Homo sapiens, UniProt P52333); assay: SelectScreen kinase profiling, ZLYTE; type: biochemical; settings: JAK3, 10 µM
[2] = molecular target: FRAP1 (mTOR) (Homo sapiens, UniProt P42345); assay: SelectScreen kinase profiling, ZLYTE; type: biochemical
[3] = molecular target: STK23 (MSSK1) (Homo sapiens, UniProt Q9UPE1); assay: SelectScreen kinase profiling, ZLYTE; type: biochemical
Chain of STK23 (MSSK1) (Q9UPE1 whole entry): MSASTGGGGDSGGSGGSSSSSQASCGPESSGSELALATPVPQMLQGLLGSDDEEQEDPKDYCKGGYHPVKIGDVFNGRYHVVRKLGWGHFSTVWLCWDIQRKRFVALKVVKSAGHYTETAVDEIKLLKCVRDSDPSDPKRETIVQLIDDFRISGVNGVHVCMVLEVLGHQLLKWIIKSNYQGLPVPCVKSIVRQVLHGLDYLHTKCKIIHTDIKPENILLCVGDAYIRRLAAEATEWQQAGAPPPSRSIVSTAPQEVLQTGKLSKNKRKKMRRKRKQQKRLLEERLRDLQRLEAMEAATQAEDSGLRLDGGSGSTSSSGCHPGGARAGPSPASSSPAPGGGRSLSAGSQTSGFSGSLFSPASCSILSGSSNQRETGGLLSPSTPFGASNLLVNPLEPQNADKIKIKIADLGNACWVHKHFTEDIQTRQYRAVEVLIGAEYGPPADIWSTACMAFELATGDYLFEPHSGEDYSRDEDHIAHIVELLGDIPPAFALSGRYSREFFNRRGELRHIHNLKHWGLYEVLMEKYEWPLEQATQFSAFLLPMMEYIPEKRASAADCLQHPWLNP
Source text: (§1) Kinase Technology % Inhibition Avg Kinase Technology % Inhibition Avg

[4] = molecular target: ADCK3 (Homo sapiens, UniProt Q8NI60); assay: SelectScreen kinase profiling, LanthaScreen binding; settings: ADCK3, 10 µM
Chain of ADCK3 (Q8NI60 163-647): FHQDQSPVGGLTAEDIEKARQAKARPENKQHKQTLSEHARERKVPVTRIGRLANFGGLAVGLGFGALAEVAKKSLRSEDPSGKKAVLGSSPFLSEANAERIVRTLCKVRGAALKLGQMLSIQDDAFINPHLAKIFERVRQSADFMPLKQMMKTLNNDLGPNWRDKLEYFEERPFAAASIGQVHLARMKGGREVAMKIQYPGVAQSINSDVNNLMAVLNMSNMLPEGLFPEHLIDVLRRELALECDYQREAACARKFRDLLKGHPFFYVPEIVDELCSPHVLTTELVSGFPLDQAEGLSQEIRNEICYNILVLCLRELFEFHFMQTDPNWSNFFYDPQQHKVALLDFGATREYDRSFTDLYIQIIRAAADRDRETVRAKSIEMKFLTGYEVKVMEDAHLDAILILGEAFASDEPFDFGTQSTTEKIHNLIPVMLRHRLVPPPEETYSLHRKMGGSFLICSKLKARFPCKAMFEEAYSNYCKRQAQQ
Source text: as §1
STK23 (MSSK1) ZLYTE 59 TGFBR1 (ALK5) LanthaScreen 85
STK24 (MST3) ZLYTE 85 TGFBR2 LanthaScreen 77
STK25 (YSK1) ZLYTE 45 TLK1 LanthaScreen 4
STK3 (MST2) ZLYTE 77 TLK2 LanthaScreen 33
STK32B (YANK2) LanthaScreen 61 TNIK LanthaScreen 15
STK32C (YANK3) LanthaScreen 62 TNK1 ZLYTE 94
STK33 LanthaScreen 81 TNK2 (ACK) LanthaScreen 71
STK38 (NDR) LanthaScreen 85 TTK LanthaScreen 54
STK38L (NDR2) LanthaScreen 59 TXK ZLYTE 94
STK39 (STLK3) LanthaScreen 38 TYK2 ZLYTE 99
STK4 (MST1) ZLYTE 93 TYRO3 (RSE) ZLYTE 92
SYK ZLYTE 98 ULK1 LanthaScreen 80
TAOK1 LanthaScreen 82 ULK2 LanthaScreen 56
TAOK2 (TAO1) ZLYTE 87 ULK3 LanthaScreen 5
TAOK3 (JIK) LanthaScreen 25 VRK2 LanthaScreen 32
TBK1 ZLYTE 99 WEE1 LanthaScreen 75
TEC LanthaScreen -9 WNK1 LanthaScreen 2
TEK (Tie2) ZLYTE 99 WNK2 LanthaScreen 1
TEK (TIE2) R849W LanthaScreen -5 WNK3 LanthaScreen 7
TEK (TIE2) Y897S ZLYTE 80 ZAK LanthaScreen 77
(§2) TESK1 LanthaScreen 37 ZAP70 ZLYTE 24
(§3) cleavage (Thermo Fisher Scientific, USA)

[5] = molecular target: AMPK (A2/B1/G3) (Homo sapiens, UniProt P54646); assay: SelectScreen kinase profiling, ZLYTE; type: biochemical
[6] = molecular target: AMPK (A2/B2/G2) (Homo sapiens, UniProt P54646); assay: SelectScreen kinase profiling, LanthaScreen binding
[7] = molecular target: ACVR1B (ALK4) (Homo sapiens, UniProt P36896); assay: SelectScreen kinase profiling, ZLYTE; type: biochemical
[8] = molecular target: MELK (Homo sapiens, UniProt Q14680); assay: SelectScreen kinase profiling, ZLYTE; type: biochemical
[9] = molecular target: MAPK13 (p38 delta) (Homo sapiens, UniProt O15264); assay: SelectScreen kinase profiling, ZLYTE; type: biochemical
[10] = molecular target: ERBB4 (HER4) (Homo sapiens, UniProt Q15303); assay: SelectScreen kinase profiling, ZLYTE; type: biochemical
[11] = molecular target: AURKA (Aurora A) (Homo sapiens, UniProt O14965); assay: SelectScreen kinase profiling, ZLYTE; type: biochemical
[12] = molecular target: AKT1 (PKB alpha) (Homo sapiens, UniProt P31749); assay: SelectScreen kinase profiling, ZLYTE; type: biochemical
Chain of AKT1 (PKB alpha) (P31749 whole entry): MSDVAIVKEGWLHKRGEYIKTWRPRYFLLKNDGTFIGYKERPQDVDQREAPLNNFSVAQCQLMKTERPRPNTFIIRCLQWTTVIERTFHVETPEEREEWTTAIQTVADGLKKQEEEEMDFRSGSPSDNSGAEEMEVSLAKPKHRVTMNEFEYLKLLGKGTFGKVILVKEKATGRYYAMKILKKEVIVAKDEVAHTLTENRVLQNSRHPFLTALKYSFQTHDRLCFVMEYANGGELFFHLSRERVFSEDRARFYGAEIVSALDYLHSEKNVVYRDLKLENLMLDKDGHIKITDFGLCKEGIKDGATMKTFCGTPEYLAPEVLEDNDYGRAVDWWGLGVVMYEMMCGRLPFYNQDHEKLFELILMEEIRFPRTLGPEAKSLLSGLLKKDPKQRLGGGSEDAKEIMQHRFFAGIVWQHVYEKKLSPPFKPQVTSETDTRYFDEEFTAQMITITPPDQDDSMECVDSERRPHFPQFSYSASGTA

[13] = molecular target: MET (cMet) Y1235D (Homo sapiens, UniProt P08581, Y1235D); assay: SelectScreen kinase profiling, ZLYTE; type: biochemical
[14] = molecular target: PIP5K1C (Homo sapiens, UniProt O60331); assay: SelectScreen kinase profiling, Adapta; type: biochemical
[15] = molecular target: P450 3A5 (Homo sapiens, UniProt P20815); assay: SelectScreen P450 Vivid biochemical assay; settings: 10000nM
Chain of P450 3A5 (P20815 whole entry): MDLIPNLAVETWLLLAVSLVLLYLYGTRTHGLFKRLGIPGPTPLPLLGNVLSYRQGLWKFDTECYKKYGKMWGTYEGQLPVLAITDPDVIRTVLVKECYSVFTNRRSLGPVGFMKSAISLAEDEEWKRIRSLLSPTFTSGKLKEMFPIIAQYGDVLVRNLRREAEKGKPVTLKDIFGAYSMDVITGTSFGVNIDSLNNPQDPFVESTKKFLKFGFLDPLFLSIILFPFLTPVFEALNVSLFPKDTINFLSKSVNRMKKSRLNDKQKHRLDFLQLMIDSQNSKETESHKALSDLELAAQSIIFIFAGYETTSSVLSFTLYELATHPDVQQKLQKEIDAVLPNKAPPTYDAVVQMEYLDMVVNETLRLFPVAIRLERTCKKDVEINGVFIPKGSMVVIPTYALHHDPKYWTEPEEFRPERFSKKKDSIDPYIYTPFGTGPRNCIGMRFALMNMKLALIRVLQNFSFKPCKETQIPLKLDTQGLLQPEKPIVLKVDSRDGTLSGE

[16] = molecular target: AXL R499C (Homo sapiens, UniProt P30530, R499C); assay: SelectScreen kinase profiling, LanthaScreen binding
Chain of AXL R499C (P30530 26-894 R499C): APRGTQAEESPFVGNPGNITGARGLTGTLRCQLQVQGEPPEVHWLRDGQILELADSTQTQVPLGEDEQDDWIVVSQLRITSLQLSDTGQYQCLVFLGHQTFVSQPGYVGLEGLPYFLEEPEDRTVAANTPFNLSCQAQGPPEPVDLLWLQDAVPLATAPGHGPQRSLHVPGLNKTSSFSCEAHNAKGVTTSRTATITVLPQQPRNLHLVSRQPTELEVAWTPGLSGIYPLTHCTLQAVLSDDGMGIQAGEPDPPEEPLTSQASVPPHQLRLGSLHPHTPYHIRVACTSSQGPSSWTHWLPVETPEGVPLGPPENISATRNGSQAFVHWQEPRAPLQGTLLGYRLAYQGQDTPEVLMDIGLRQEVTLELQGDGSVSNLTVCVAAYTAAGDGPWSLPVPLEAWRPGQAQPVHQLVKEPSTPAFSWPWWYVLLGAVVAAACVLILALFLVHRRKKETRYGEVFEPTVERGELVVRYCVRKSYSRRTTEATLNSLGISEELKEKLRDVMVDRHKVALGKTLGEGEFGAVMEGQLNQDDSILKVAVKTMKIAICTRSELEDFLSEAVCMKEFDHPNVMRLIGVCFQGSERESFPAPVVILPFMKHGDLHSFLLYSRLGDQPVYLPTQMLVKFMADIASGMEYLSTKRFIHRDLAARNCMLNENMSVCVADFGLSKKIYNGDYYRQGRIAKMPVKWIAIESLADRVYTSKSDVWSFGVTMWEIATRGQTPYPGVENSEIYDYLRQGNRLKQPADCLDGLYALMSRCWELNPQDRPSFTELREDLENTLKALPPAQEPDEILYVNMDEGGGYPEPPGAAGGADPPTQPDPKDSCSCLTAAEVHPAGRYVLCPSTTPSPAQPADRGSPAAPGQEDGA

[17] = molecular target: GRK6 (Homo sapiens, UniProt P43250); assay: SelectScreen kinase profiling, ZLYTE; type: biochemical; settings: GRK6, 10 µM
[18] = molecular target: MAP2K2 (MEK2) (Homo sapiens, UniProt P36507); assay: SelectScreen kinase profiling, ZLYTE; type: biochemical
[19] = molecular target: PRKCH (PKC eta) (Homo sapiens, UniProt P24723); assay: SelectScreen kinase profiling, ZLYTE; type: biochemical
[20] = molecular target: DYRK3 (Homo sapiens, UniProt O43781); assay: SelectScreen kinase profiling, ZLYTE; type: biochemical; settings: DYRK3, 10 µM
[21] = molecular target: EPHA4 (Homo sapiens, UniProt P54764); assay: SelectScreen kinase profiling, ZLYTE; type: biochemical; settings: EPHA4, 10 µM
Chain of EPHA4 (P54764 20-986): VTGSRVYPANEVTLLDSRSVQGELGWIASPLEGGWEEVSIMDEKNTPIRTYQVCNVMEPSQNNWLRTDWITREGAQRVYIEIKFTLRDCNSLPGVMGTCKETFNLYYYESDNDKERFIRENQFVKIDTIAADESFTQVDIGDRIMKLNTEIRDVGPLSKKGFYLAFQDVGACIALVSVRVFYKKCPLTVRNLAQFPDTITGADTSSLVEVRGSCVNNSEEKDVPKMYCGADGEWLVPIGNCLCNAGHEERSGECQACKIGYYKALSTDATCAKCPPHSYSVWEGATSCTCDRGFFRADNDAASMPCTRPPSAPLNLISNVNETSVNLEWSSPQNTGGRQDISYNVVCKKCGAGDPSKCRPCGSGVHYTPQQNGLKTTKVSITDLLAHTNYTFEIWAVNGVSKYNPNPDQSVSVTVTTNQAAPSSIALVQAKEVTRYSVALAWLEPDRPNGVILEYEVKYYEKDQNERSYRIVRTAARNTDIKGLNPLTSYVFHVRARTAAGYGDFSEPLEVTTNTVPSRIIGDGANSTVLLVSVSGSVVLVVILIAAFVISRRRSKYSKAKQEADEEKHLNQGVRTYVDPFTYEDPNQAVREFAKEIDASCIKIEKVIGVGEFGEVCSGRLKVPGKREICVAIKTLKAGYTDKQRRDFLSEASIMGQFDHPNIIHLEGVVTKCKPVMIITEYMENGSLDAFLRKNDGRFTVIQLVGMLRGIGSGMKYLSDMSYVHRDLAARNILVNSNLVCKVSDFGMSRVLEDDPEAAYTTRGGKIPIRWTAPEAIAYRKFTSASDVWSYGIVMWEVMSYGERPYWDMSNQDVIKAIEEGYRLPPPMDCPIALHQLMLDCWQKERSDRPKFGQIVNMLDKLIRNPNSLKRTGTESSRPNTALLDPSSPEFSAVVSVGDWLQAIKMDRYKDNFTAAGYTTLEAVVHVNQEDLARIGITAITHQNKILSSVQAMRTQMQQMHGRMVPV

[22] = molecular target: STK17B (DRAK2) (Homo sapiens, UniProt O94768); assay: SelectScreen kinase profiling, LanthaScreen binding
Chain of STK17B (DRAK2) (O94768 whole entry): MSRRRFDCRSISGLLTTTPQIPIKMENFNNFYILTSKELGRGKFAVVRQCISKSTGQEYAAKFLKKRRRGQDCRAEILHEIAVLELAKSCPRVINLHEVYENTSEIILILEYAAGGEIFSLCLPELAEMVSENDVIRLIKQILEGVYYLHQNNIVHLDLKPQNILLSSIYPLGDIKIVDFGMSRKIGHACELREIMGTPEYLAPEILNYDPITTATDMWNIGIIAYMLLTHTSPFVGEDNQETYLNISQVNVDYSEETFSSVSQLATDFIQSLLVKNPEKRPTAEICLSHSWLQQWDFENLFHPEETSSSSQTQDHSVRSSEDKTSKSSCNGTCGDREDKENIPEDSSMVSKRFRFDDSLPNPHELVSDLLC

[23] = molecular target: RPS6KA4 (MSK2) (Homo sapiens, UniProt O75676); assay: SelectScreen kinase profiling, ZLYTE; type: biochemical
[24] = molecular target: ABL1 F317I (Homo sapiens, UniProt P00519, F317I); assay: SelectScreen kinase profiling, ZLYTE; type: biochemical
[25] = molecular target: SIK1 (Homo sapiens, UniProt P57059); assay: SelectScreen kinase profiling, LanthaScreen binding; settings: SIK1, 10 µM
Chain of SIK1 (P57059 whole entry): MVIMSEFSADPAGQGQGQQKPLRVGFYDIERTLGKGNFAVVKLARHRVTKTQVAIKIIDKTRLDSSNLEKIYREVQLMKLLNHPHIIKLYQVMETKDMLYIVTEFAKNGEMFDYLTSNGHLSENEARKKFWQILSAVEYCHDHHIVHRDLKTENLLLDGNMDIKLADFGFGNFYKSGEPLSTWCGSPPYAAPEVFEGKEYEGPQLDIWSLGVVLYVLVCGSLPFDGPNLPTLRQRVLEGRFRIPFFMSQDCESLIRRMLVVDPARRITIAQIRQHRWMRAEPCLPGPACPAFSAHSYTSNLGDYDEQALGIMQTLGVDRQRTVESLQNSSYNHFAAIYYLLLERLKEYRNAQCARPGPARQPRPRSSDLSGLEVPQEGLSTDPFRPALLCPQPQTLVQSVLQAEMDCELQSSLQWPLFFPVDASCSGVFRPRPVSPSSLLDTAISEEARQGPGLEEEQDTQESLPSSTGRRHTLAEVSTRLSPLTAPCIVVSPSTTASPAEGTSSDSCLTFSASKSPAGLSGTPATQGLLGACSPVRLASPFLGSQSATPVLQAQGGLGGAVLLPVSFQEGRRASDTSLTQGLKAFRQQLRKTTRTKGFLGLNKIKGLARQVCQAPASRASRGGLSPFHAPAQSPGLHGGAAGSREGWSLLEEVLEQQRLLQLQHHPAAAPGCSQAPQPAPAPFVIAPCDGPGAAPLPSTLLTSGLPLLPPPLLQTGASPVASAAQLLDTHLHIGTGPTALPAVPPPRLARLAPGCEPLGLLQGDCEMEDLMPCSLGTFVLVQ

[26] = molecular target: NUAK2 (Homo sapiens, UniProt Q9H093); assay: as above; settings: NUAK2, 10 µM
[27] = molecular target: EPHA7 (Homo sapiens, UniProt Q15375); assay: as above; settings: EPHA7, 10 µM
[28] = molecular target: CAMK4 (CaMKIV) (Homo sapiens, UniProt Q16566); assay: SelectScreen kinase profiling, ZLYTE; type: biochemical
[29] = molecular target: KIT D820E (Homo sapiens, UniProt P10721, D820E); assay: SelectScreen kinase profiling, LanthaScreen binding
[30] = molecular target: TESK1 (Homo sapiens, UniProt Q15569); assay: as above; settings: TESK1, 10 µM
Source text: Kinase Technology % Inhibition Avg Kinase Technology % Inhibition Avg […]
as §2, §3

O=C(c1ccc(/C=C/c2n[nH]c3ccccc23)cc1)N1CCNCC1 [KW-2449]
inhibition at 10 µM [1]: 98% | inhibition at 10 µM [2]: 9% | inhibition at 10 µM [3]: 59% | inhibition at 10 µM [4]: -2% | inhibition at 10 µM [5]: 96% | inhibition at 10 µM [6]: 78% | inhibition at 10 µM [7]: 39% | inhibition at 10 µM [8]: 101% | inhibition at 10 µM [9]: 30% | inhibition at 10 µM [10]: 55% | inhibition at 10 µM [11]: 98% | inhibition at 10 µM [12]: 24% | inhibition at 10 µM [13]: 88% | inhibition at 10 µM [14]: 7% | % Inhibition 3A5 BOMCC ([15]; substrate BOMCC): 14% | % Inhibition 3A5 DBOMF ([15]; substrate DBOMF): 10% | inhibition at 10 µM [16]: 45% | inhibition at 10 µM [17]: 62% | inhibition at 10 µM [18]: 75% | inhibition at 10 µM [19]: -2% | inhibition at 10 µM [20]: 86% | inhibition at 10 µM [21]: 83% | inhibition at 10 µM [22]: 58% | inhibition at 10 µM [23]: 75% | inhibition at 10 µM [24]: 94% | inhibition at 10 µM [25]: 82% | inhibition at 10 µM [26]: 62% | inhibition at 10 µM [27]: 66% | inhibition at 10 µM [28]: 52% | inhibition at 10 µM [29]: 81% | inhibition at 10 µM [30]: 37%
